This assay deals with T1, BTK (Homo sapiens, UniProt Q06187).
T1 construct: endogenous in cells; host or cells: Ramos (ATCC CRL-1596)
T1 sequence (Q06187 whole entry): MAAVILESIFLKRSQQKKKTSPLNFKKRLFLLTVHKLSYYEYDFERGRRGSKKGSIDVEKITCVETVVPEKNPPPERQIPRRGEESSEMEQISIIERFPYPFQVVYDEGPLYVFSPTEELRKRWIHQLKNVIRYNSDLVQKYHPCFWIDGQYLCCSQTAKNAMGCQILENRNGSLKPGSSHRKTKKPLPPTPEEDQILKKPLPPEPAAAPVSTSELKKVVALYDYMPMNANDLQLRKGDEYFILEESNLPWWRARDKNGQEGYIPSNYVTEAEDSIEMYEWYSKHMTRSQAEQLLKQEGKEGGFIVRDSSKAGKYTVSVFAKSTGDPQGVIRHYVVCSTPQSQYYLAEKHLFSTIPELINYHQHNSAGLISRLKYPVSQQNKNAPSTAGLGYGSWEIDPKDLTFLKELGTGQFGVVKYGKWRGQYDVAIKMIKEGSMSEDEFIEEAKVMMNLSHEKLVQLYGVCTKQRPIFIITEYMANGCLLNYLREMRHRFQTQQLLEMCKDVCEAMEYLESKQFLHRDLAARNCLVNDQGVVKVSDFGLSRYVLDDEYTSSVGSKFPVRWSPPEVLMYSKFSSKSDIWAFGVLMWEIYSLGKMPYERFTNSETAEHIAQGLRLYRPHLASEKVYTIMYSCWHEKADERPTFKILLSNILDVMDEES
In words: Cellular BTK HTRF Assay (BTK degradation in Ramos cells). Format: cell-based. As to conditions: four hours incubation, 37° C., BTK levels relative to DMSO-treated cells. As for the experimental part: Ramos (CRL-1596) cells were obtained from American Type Culture Collection and were grown in RPMI-1640 media (ATCC, 30-2001) supplemented with 10% heat-inactivated FBS (Corning Premium Fetal Bovine Serum from Fisher, MT35015CV).
Compounds of the present invention were added to 50,000 Ramos cells in round-bottom 96 well plates with a final DMSO concentration of […] and were incubated at 37° C., 5% CO2 for four hours. BTK levels were determined using Cisbio Total-BTK HTRF ([…] Time-Resolved Fluorescence) kit (63ADK064PEG) according to manufacturer's protocol. Briefly, cells were incubated in 1× supplied lysis buffer for 30 minutes. In an opaque white low volume 96 well plate (Cisbio, 66PL96005), cell lysate was combined with two different specific BTK antibodies, one conjugated with Eu^3+-Cryptate FRET donor and one conjugated with d2 FRET acceptor. Assay controls include wells containing cell lysate with only the Eu^3+-Cryptate FRET donor antibody and wells containing both HTRF antibodies and lysis buffer without cells or control lysate provided by Cisbio. HTRF ratio was calculated as (acceptor signal at 665 nm/donor signal at 620 nm)×10^4. Background HTRF levels were determined from the control well containing the donor, but no acceptor, antibody. Background HTRF levels were subtracted from all samples. Readouts were reported as HTRF levels relative to HTRF levels of DMSO-treated cells. Four-parameter non-linear regressions were performed in GraphPad Prism 7.02 to obtain DC50 values. DC50 values are provided in Table 3, wherein A<7.5 nM, 7.5 nM≤B≤50 nM, and 50 nM<C<500 nM.
On the technique in general: In TR-FRET formats the signal depends on donor and acceptor labels being close together.
One may read the DC50 as the midpoint of the concentration-degradation curve. `Cn1cc(Nc2nc(N3CCC[C@@H](N4CCC5(CCN(CC6CCN(c7ccc8c(c7)C(=O)N(C7CCC(=O)NC7=O)C8=O)CC6)CC5)C4=O)C3)cnc2C(N)=O)cn1` (stereo partly drawn) [Compound 48, 5-[(3R)-3-[8-({1-[2-(2,6-dioxopiperidin-3-yl)-1,3-dioxoisoindol-5-yl]piperidin-4-yl}methyl)-1-oxo-2,8-diazaspiro[4.5]decan-2-yl]piperidin-1-yl]-3-[(1-methylpyrazol-4-yl)amino]pyrazine-2-carboxamide] came in with a 50% degradation concentration (DC50) of less than 7.5 nM.

`CS(=O)(=O)c1ccc(Nc2nc(N3CCC[C@@H](NC(=O)N4CCC5(CCN(Cc6ccc7c(c6)C(=O)N(C6CCC(=O)NC6=O)C7=O)C5)CC4)C3)cnc2C(N)=O)cc1` (stereo partly drawn) [Compound 13, N-[(3R)-1-{5-carbamoyl-6-[(4-methanesulfonylphenyl)amino]pyrazin-2-yl}piperidin-3-yl]-2-{[2-(2,6-dioxopiperidin-3-yl)-1,3-dioxoisoindol-5-yl]methyl}-2,8-diazaspiro[4.5]decane-8-carboxamide] showed a half-maximal degradation concentration (DC50) of less than 7.5 nM.

As for `CS(=O)(=O)c1ccc(Nc2nc(N3CCC[C@@H](NC(=O)C4CCN(CC5CCN(c6ccc7c(c6)C(=O)N(C6CCC(=O)NC6=O)C7=O)CC5)CC4)C3)cnc2C(N)=O)cc1` (stereo partly drawn) [Compound 20, 5-[(3R)-3-[1-({1-[2-(2,6-dioxopiperidin-3-yl)-1,3-dioxoisoindol-5-yl]piperidin-4-yl}methyl)piperidine-4-amido]piperidin-1-yl]-3-[(4-methanesulfonylphenyl)amino]pyrazine-2-carboxamide], the DC50 was less than 7.5 nM.

Compound `CS(=O)(=O)c1ccc(Nc2nc(N3CCC[C@@H](NC(=O)C4CC5CCC(C4)N5CC4CCN(c5ccc6c(c5)C(=O)N(C5CCC(=O)NC5=O)C6=O)CC4)C3)cnc2C(N)=O)cc1` (stereo partly drawn) [Compound 34, (1R,3s,5S)—N—((R)-1-(5-carbamoyl-6-((4-(methylsulfonyl)phenyl)amino)pyrazin-2-yl)piperidin-3-yl)-8-((1-(2-(2,6-dioxopiperidin-3-yl)-1,3-dioxoisoindolin-5-yl)piperidin-4-yl)methyl)-8-azabicyclo[3.2.1]octane-3-carboxamide] gave a 50% degradation concentration (DC50) of 7.5 to 50 nM.

In turn, `Cc1cc(Nc2nc(N3CCC[C@@H](NC(=O)C4CCN(CC5CCN(c6ccc7c(c6)C(=O)N(C6CCC(=O)NC6=O)C7=O)CC5)CC4)C3)cnc2C(N)=O)sn1` (stereo partly drawn) [Compound 22, 5-[(3R)-3-[1-({1-[2-(2,6-dioxopiperidin-3-yl)-1,3-dioxoisoindol-5-yl]piperidin-4-yl}methyl)piperidine-4-amido]piperidin-1-yl]-3-[(3-methyl-1,2-thiazol-5-yl)amino]pyrazine-2-carboxamide] displayed a DC50 of less than 7.5 nM.

The compound `Cc1cc(Nc2nc(N3CCCC(NC(=O)CCOCCCc4cccc5c4CN(C4CCC(=O)NC4=O)C5=O)C3)cnc2C(N)=O)sn1` (stereo in doubt) [Compound 45, 5-[(3R)-3-(3-{3-[2-(2,6-dioxopiperidin-3-yl)-1-oxo-3H-isoindol-4-yl]propoxy}propanamido)piperidin-1-yl]-3-[(3-methyl-1,2-thiazol-5-yl)amino]pyrazine-2-carboxamide] showed a DC50 of 50 to 500 nM.

Compound `Cn1cc(Nc2nc(N3CCC[C@@H](N4CC5(CN(CC6CCN(c7ccc8c(c7)C(=O)N(C7CCC(=O)NC7=O)C8=O)CC6)C5)OC4=O)C3)cnc2C(N)=O)cn1` (stereo partly drawn) [Compound 43, 5-[(3R)-3-[2-({1-[2-(2,6-dioxopiperidin-3-yl)-1,3-dioxoisoindol-5-yl]piperidin-4-yl}methyl)-6-oxo-5-oxa-2,7-diazaspiro[3.4]octan-7-yl]piperidin-1-yl]-3-[(1-methylpyrazol-4-yl)amino]pyrazine-2-carboxamide] came in with a DC50 of less than 7.5 nM.

In turn, `Cc1cc(Nc2nc(N3CCC[C@@H](NC(=O)N4CCN(c5ccc6c(c5)C(=O)N(C5CCC(=O)NC5=O)C6=O)CC4)C3)cnc2C(N)=O)sn1` (stereo partly drawn) [Compound 27, 5-[(3R)-3-{4-[2-(2,6-dioxopiperidin-3-yl)-1,3-dioxoisoindol-5-yl]piperazine-1-carbonylamino}piperidin-1-yl]-3-[(3-methyl-1,2-thiazol-5-yl)amino]pyrazine-2-carboxamide] returned a 50% degradation concentration (DC50) of 50 to 500 nM.

`CS(=O)(=O)c1ccc(Nc2nc(N3CCC[C@@H](NC(=O)CCCCc4ccc5c(c4)C(=O)N(C4CCC(=O)NC4=O)C5)C3)cnc2C(N)=O)cc1` (stereo partly drawn) [Compound 4, 5-[(3R)-3-{5-[2-(2,6-dioxopiperidin-3-yl)-3-oxo-1H-isoindol-5-yl]pentanamido}piperidin-1-yl]-3-[(4-methanesulfonylphenyl)amino]pyrazine-2-carboxamide] registered a DC50 of 50 to 500 nM.

In turn, `Cn1cc(Nc2nc(N3CCC[C@@H](NC(=O)C4CCN(CC5CN(c6ccc7c(c6)C(=O)N(C6CCC(=O)NC6=O)C7=O)C5)CC4)C3)cnc2C(N)=O)cn1` (stereo partly drawn) [Compound 19, 5-[(3R)-3-[1-({1-[2-(2,6-dioxopiperidin-3-yl)-1,3-dioxoisoindol-5-yl]azetidin-3-yl}methyl)piperidine-4-amido]piperidin-1-yl]-3-[(1-methylpyrazol-4-yl)amino]pyrazine-2-carboxamide] registered a DC50 of less than 7.5 nM.

Compound `Cc1cc(Nc2nc(N3CCC[C@@H](NC(=O)N4CCN(CC5CN(c6ccc7c(c6)C(=O)N(C6CCC(=O)NC6=O)C7=O)C5)CC4)C3)cnc2C(N)=O)sn1` (stereo partly drawn) [Compound 18, 5-[(3R)-3-[4-({1-[2-(2,6-dioxopiperidin-3-yl)-1,3-dioxoisoindol-5-yl]azetidin-3-yl}methyl)piperazine-1-carbonylamino]piperidin-1-yl]-3-[(3-methyl-1,2-thiazol-5-yl)amino]pyrazine-2-carboxamide] showed a DC50 of less than 7.5 nM.

The compound `CS(=O)(=O)c1ccc(Nc2nc(N3CCC[C@@H](NC(=O)C4CCC5(CC4)CCN(c4ccc6c(c4)C(=O)N(C4CCC(=O)NC4=O)C6=O)CC5)C3)cnc2C(N)=O)cc1` (stereo partly drawn) [Compound 36, N-[(3R)-1-{5-carbamoyl-6-[(4-methanesulfonylphenyl)amino]pyrazin-2-yl}piperidin-3-yl]-3-[2-(2,6-dioxopiperidin-3-yl)-1,3-dioxoisoindol-5-yl]-3-azaspiro[5.5]undecane-9-carboxamide] had a DC50 of less than 7.5 nM.

Compound `Cc1cc(Nc2nc(N3CCC[C@@H](NC(=O)C4CCN(C5CN(c6ccc7c(c6)C(=O)N(C6CCC(=O)NC6=O)C7=O)C5)CC4)C3)cnc2C(N)=O)sn1` (stereo partly drawn) [Compound 38, 5-((3R)-3-(1-(1-(2-(2,6-dioxopiperidin-3-yl)-1,3-dioxoisoindolin-5-yl)azetidin-3-yl)piperidine-4-carboxamido)piperidin-1-yl)-3-((3-methylisothiazol-5-yl)amino)pyrazine-2-carboxamide] returned a DC50 of 7.5 to 50 nM.

The compound `CS(=O)(=O)c1ccc(Nc2nc(N3CCC[C@@H](NC(=O)CCOCCCc4cccc5c4CN(C4CCC(=O)NC4=O)C5=O)C3)cnc2C(N)=O)cc1` (stereo partly drawn) [Compound 47, 5-[(3R)-3-(3-{3-[2-(2,6-dioxopiperidin-3-yl)-1-oxo-3H-isoindol-4-yl]propoxy}propanamido)piperidin-1-yl]-3-[(4-methanesulfonylphenyl)amino] pyrazine-2-carboxamide] yielded a DC50 of 50 to 500 nM.

`Cc1cc(Nc2nc(N3CCC[C@@H](NC(=O)C4CCN(CC5CN(c6ccc7c(c6)C(=O)N(C6CCC(=O)NC6=O)C7=O)C5)CC4)C3)cnc2C(N)=O)sn1` (stereo partly drawn) [Compound 17, 5-[(3R)-3-[1-({1-[2-(2,6-dioxopiperidin-3-yl)-1,3-dioxoisoindol-5-yl]azetidin-3-yl}methyl)piperidine-4-amido]piperidin-1-yl]-3-[(3-methyl-1,2-thiazol-5-yl)amino]pyrazine-2-carboxamide] displayed a DC50 of less than 7.5 nM.

The compound `CS(=O)(=O)c1ccc(Nc2nc(N3CCC[C@@H](NC(=O)N4CCC5(CC4)CCN(c4ccc6c(c4)C(=O)N(C4CCC(=O)NC4=O)C6=O)CC5)C3)cnc2C(N)=O)cc1` (stereo partly drawn) [Compound 11, N-[(3R)-1-{5-carbamoyl-6-[(4-methanesulfonylphenyl)amino]pyrazin-2-yl}piperidin-3-yl]-9-[2-(2,6-dioxopiperidin-3-yl)-1,3-dioxoisoindol-5-yl]-3,9-diazaspiro[5.5]undecane-3-carboxamide] gave a DC50 of less than 7.5 nM.

Compound `CS(=O)(=O)c1ccc(Nc2nc(N3CCC[C@@H](NC(=O)N4CCN(Cc5ccc6c(c5)C(=O)N(C5CCC(=O)NC5=O)C6=O)CC4)C3)cnc2C(N)=O)cc1` (stereo partly drawn) [Compound 26, 5-((3R)-3-(4-((2-(2,6-dioxopiperidin-3-yl)-1,3-dioxoisoindolin-5-yl)methyl)piperazine-1-carboxamido)piperidin-1-yl)-3-((4-(methylsulfonyl)phenyl)amino)pyrazine-2-carboxamide] yielded a DC50 of 50 to 500 nM.

Consider `CS(=O)(=O)c1ccc(Nc2nc(N3CCC[C@@H](NC(=O)C4CCN(CC5CCN(c6ccc7c(c6)C(=O)N(C6CCC(=O)NC6=O)C7=O)CC5)C4)C3)cnc2C(N)=O)cc1` (stereo partly drawn) [Compound 14, 5-[(3R)-3-[1-({1-[2-(2,6-dioxopiperidin-3-yl)-1,3-dioxoisoindol-5-yl]piperidin-4-yl}methyl)pyrrolidine-3-amido]piperidin-1-yl]-3-[(4-methanesulfonylphenyl)amino]pyrazine-2-carboxamide], for which the DC50 was less than 7.5 nM.

The record behind these values is patent publication US12582722B2, “Bifunctional compounds for degrading BTK via ubiquitin proteosome pathway” (NURIX THERAPEUTICS, INC., priority 2019, dated 2026).
